Laboratory results from patent US20080207532A1, “Use of Nordihydroguaiaretic Acid Derivatives in the Treatment of Drug Resistant Cancer, Viral and Microbial Infection” (Johns Hopkins University, priority 2004, published 2008).
Read-outs that look alike come from different tables or passages of the source.

Tests used:
NCI/ADR-RES cells = experiment: SRB cytotoxicity assay with median-effect / combination index analysis; format: cell-based, human; settings: for IC50: Homo sapiens
Procedure: The multidrug resistant cell line, NCI/ADR-RES, was obtained from the DTP Human Tumor Cell Line Screen (Developmental Therapeutics Program, NCI). Both cell lines were maintained in Dulbecco's modified Eagle's medium supplemented with 10% fetal bovine serum and the antibiotics penicillin and streptomycin. […] Stocks of M4N and paclitaxel (Sigma-Aldrich, St. Louis, Mo.) were prepared in dimethyl sulfoxide (DMSO) and added to the cell culture medium so that the final concentration of DMSO was one percent. Aqueous stocks of Dox (Sigma-Aldrich) were prepared and filter sterilized before dilution into growth medium.
NCI/ADR-RES cells were seeded at a density of 2×10^4 cells per well in 24 well plates and 24 h later the growth medium was supplemented with M4N, Dox, paclitaxel or combinations of M4N with Dox or M4N with paclitaxel. MAN was used at concentrations between 1.5 and 48 μM. For the combination of MAN and Dox a constant molar ratio of 2.4:1 (M4N:Dox) was used and for M4N and paclitaxel the ratio was 20:1 (M4N:paclitaxel). Three days after drug addition cytoxicity was assessed with the SRB assay (14) with 540 and 690 nm (reference) absorbance measured with a Power Wave 200 microplate reader (Bio-Tek Instruments, Winooski, Vt.).
The combination index (CD isobologram method of Chou and Talalay (16, 17, 18, 19) which is based on the median effect principle, was used to calculate synergism or antagonism for the combined drug effects. Dose-effect curves for each drug, singly and in combination, in serially-diluted concentrations were plotted using the median-effect equation and plot (18, 20) and the CI equation and plot (19). CI values at different effect and dose levels and isobolograms were generated automatically using the computer software CompuSyn (20). With this method, additive, synergistic or antagonistic effects are indicated by CI values of 1, <1, and >1, respectively. Comparison of the ratio of doses required to reach a given effect level for each single drug and the drugs in combination was used to determine the dose-reduction index (DRI).

MCF-7 = settings: MCF-7, drug sensitive human breast cancer cell line; read-out: reported IC50; cited from earlier work
MDR-1 gene = settings: cited from earlier work
C3 tumors = experiment: intratumoral treatment of C3 cell-induced tumors in mice; format: in vivo; settings: daily intratumoral injections for 4 days
Procedure: Four C57b1/6 mice were inoculated with 5×10^5 C3 cells subcutaneously between the shoulders. Tumors were allowed to develop for approximately 20 days. The mice then received daily intratumoral injections of 0.1 ml of 0.15 M NaCl, 10 mg, 20 mg or 40 mg of Maltose-M3N dissolved in 0.15 M NaCl. After 4 days of treatment, the mice were euthanized and the tumors were excised, immediately fixed and then stored in 4% formaldehyde in PBS. Tissue samples were then sent to Paragon Bioservices (Baltimore, Md.) for histology and immunohistochemistry using antibodies against Cdc2 and survivin.

solubility in water = format: physicochemical
[1] = system: NCI/ADR-RES multidrug resistant breast cancer xenografts; experiment: combination therapy against NCI/ADR-RES xenografts in nude mice; settings: two weeks
Procedure: Nude mice bearing NCI/ADR-RES multidrug resistant breast cancer xenografts were used as a model for combination therapy to further examine synergy between M4N and paclitaxel.
T-cell deficient female nude (nu/nu) mice, 5-6 weeks of age, were purchased from Charles River Laboratories (Wilmington, Mass.) and were housed in a pathogen-free room. All experiments involving the mice were carried out in accordance with the Johns Hopkins University Animal Care and Use Committee guideline. The mice were implanted subcutaneously in both flanks with 1×10^6 NCI/ADR-RES cells suspended in Hank's balanced salt solution (HBSS). […] For intraperitoneal (i.p.) administration, M4N, maltose-M3N and paclitaxel were dissolved in a recently developed reduced cremophor solution containing 20% (v) dehydrated ethanol, 20% (v) Cremophor EL, PEG 300, <11% (v) Tween 80 (22). Daily injections of 0.05 ml were performed for each drug and drug combination.
Tumors were measured in two perpendicular dimensions once every seven days, and the tumor volumes were calculated according to the following formula: […]
where a is the width of the tumor (smaller diameter) and b is the length (larger diameter) (23). The mean tumor volume and standard error were calculated for each treatment group. Relative mean tumor volumes, (V/V0), where V is the mean tumor volume at a particular time and V0 is the mean tumor volume at day 0 (23), were determined and used to assess tumor growth inhibition (T/C value) using the following equation:
T/C(%)=Relative Mean Tumor Volume of treated/Relative Mean Volume of control×100.
The NCI standard for the minimal level for antitumor activity (T/C≦42%) was adopted (25). At the termination of the experiment the tumors were excised and fixed in formaldehyde. Tissue samples were then sent to Paragon Bioservices for histology and immunohistochemistry using antibodies against human P-glycoprotein (Pgp).
Two dosage regimens of M4N and paclitaxel, both with a constant molar ratio of 20:1 (M4N:paclitaxel), were employed as determined by in vitro testing to be synergistic as shown in Table 1. The 8 and 16 μmol m^2 doses of pactitaxel were submaximal based on values from other studies (22) and the M4N doses of 160 and 320 μmol/m^2 were arrived at by decreasing the maximum tolerated dose used in our previous study with MCF-7 breast cancer xenografts (5). An additional NDGA derivative was also tested. Maltose-M3N was developed as a water soluble alternative to M4N, however for consistency it was dissolved in the same reduced cremophor solvent system as M4N and paclitaxel for this study.

Hep3B cells = experiment: DAPI staining of nuclei for apoptotic bodies; format: cell-based, human; settings: 60 μM, 72 hr
Procedure: FIG. 9. (A) Effect of Maltose-M3N on the proliferation of human tumor cell lines. HT29, LNCaP, Hep3B, K562, and MCF7 were treated with different concentrations of Maltose-M3N for 72 hours. Percent cell viability was measured by MTT assay and expressed as mean±SD of triplicate data points. (B) Untreated Hep3B cells or treated with 60 μM Maltose-M3N for 72 hr were stained with DAPI. Arrows indicate apoptotic bodies.
The growth inhibitory effect of Maltose-M3N was evaluated in five human cancer cell lines, including Hep3B, HT29, K562, LNCaP, and MCF7.

[2] = system: Hep3B, HT29, K562, LNCaP, and MCF7; experiment: MTT cell viability of human tumor cell lines; format: cell-based; settings: 72 h, every cell line tested (Hep3B, HT29, K562, LNCaP, MCF7), 3 days
Procedure: Human tumor cell lines were obtained from ATCC (Mannassas, Va.). The human hepatocellular carcinoma cell line, Hep3B, was maintained in Eagle's MEM supplemented with 10% FBS; the human breast cancer cell line, MCF7, was grown in DMEM containing 10% FBS; the human colorectal carcinoma cell line, HT29, was cultured in McCoy's 5a medium with 10% FBS; the human prostate carcinoma cell line, LNCaP, was maintained in RPMI 1640 with 10% FBS and human erythroleukemia cell line, K562, was propagated in Iscove's modified Dulbecco's medium (IMDM) containing 10% FBS. All of the cultures contained the antibiotics penicillin and streptomycin. The C3 cell line was generated by transfection of the EJras-transformed C57B16 (B6) mouse embryo cells with fall length HPV16. C3 cells were grown and maintained in IMDM supplemented with 5% FBS plus penicillin and streptomycin.
For cell culture experiments, Maltose-M3N was dissolved in water to a concentration of 10 mM and then sterilized by filtration. Cells were seeded at approximately 2×10^3 cells per cm^2 in complete media. Twenty-four hours after seeding, the growth media was removed and replaced with media containing the desired concentrations of Maltose-M3N.
Twenty thousand cells were seeded into each well of 24-well plates. […] The solubilized dye was transferred to 96-well plates and read at the wavelength of 540 nm using an ELISA reader.

[3] = 72 h, NCI/ADR-RES, three days, combinations at molar ratio 2.4:1 (M4N:Dox) or 20:1 (M4N:paclitaxel), given as M4N + second drug, read-out: Dm, median effect dose (concentration that inhibits cell growth by 50%)
[4] = single agent, NCI/ADR-RES, read-out: IC50
[5] = M4N/Dox combination 2.4:1, NCI/ADR-RES
[6] = M4N/Dox combination, NCI/ADR-RES
[7] = higher regimen: M4N or Mal-M3N 320, Px 16 μmoles/m^2, i.p. daily
[8] = lower regimen: M4N 160, Px 8 μmoles/m^2, i.p. daily
[9] = M4N/paclitaxel combination 20:1, NCI/ADR-RES
[10] = M4N/paclitaxel combination, NCI/ADR-RES

SMILES: COc1cccc2c1C(=O)c1c(O)c3c(c(O)c1C2=O)C[C@@](O)(C(=O)CO)C[C@@H]3O[C@H]1C[C@H](N)[C@H](O)[C@H](C)O1 [Dox, doxorubicin]
- concentration necessary to inhibit the growth of 75% of cells (ED75) (NCI/ADR-RES cells; Dox alone, NCI/ADR-RES): 30.5 µM
- concentration necessary to inhibit the growth of 75% of cells (ED75) (NCI/ADR-RES cells; Dox with concurrent 11.3 μM M4N, NCI/ADR-RES): 4.7 µM
- IC50 (NCI/ADR-RES cells; [3]): 3.22 µM
- IC50 (NCI/ADR-RES cells; [4]): 3.22 µM
- DRI value at ED75 (NCI/ADR-RES cells; [5]): 6.47
- DRI value at ED90 (NCI/ADR-RES cells; [5]): 30.50
- DRI value at ED95 (NCI/ADR-RES cells; [5]): 87.56
- decrease of ED75 by concurrent M4N (DRI) (NCI/ADR-RES cells; [6]): 6.47 fold
- reduction of ED95 by concurrent M4N (DRI) (NCI/ADR-RES cells; [6]): 87.6 fold
- IC50 (MCF-7): 0.13 µM

SMILES: COc1cc2c(cc1O)CCN[C@]21CS[C@@H]2c3c(OC(C)=O)c(C)c4c(c3[C@H](COC1=O)N1[C@@H]2[C@H]2c3c(cc(C)c(OC)c3O)C[C@@H]([C@@H]1O)N2C)OCO4 [ET-743]
- MDR-1 gene activation (MDR-1 gene): able to inhibit MDR-1 gene activation

SMILES: COc1ccc(C[C@H](C)[C@H](C)Cc2ccc(OC)c(OC3OC(CO)C(OC4OC(CO)C(O)C(O)C4O)C(O)C3O)c2)cc1OC (stereo partly shown) [Maltose-M3N]
- Cdc2 protein expression in tumors (C3 tumors): reduced expression levels
- apoptosis and necrosis by H&E staining (C3 tumors): elevated levels of apoptosis and necrosis
- survivin protein expression in tumors (C3 tumors): reduced expression levels
- solubility in aqueous solution (solubility in water): water soluble
- Relative Mean Tumor Volume [1, 7]: 1.25
- T/C % [1, 7]: 47.7%
- mode of cell death (DAPI staining) (Hep3B cells): cell death occurred via apoptosis
- IC50 [2]: 20 to 40 µM

SMILES: CC(=O)O[C@H]1C(=O)[C@@]2(C)[C@H]([C@H](OC(=O)c3ccccc3)[C@]3(O)C[C@H](OC(=O)[C@H](O)[C@@H](NC(=O)c4ccccc4)c4ccccc4)C(C)=C1C3(C)C)[C@]1(OC(C)=O)CO[C@@H]1C[C@@H]2O [paclitaxel]
- Deaths [1, 7]: 0/7
- Relative Mean Tumor Volume [1, 7]: 1.59
- T/C % [1, 7]: 60.7%
- Deaths [1, 8]: 0/7
- Mean Body Weight Change [1, 8]: +0.3 g/mouse
- Relative Mean Tumor Volume [1, 8]: 0.90
- T/C % [1, 8]: 34.4%
- IC50 (NCI/ADR-RES cells; [3]): 3.26 µM
- IC50 (NCI/ADR-RES cells; [4]): 3.26 µM
- DRI value at ED75 (NCI/ADR-RES cells; [9]): 54.32
- DRI value at ED90 (NCI/ADR-RES cells; [9]): 150.31
- DRI value at ED95 (NCI/ADR-RES cells; [9]): 300.34
- decrease of ED50 by concurrent M4N (DRI) (NCI/ADR-RES cells; [10]): 19.63 fold
- decrease of ED95 by concurrent M4N (DRI) (NCI/ADR-RES cells; [10]): 300.3 fold
- IC50 (MCF-7): 0.0064 µM
